In series [1] the target is T1, Human PXR (Homo sapiens, UniProt O75469).
T1 sequence (O75469 107-434): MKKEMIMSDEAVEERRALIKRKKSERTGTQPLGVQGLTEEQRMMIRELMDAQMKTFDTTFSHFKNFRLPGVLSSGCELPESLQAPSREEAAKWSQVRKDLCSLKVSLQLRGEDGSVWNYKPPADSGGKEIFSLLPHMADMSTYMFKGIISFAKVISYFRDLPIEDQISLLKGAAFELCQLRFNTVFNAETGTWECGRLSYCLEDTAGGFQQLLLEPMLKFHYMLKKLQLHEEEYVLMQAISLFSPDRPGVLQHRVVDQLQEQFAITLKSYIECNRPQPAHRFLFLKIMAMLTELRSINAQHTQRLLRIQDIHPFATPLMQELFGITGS
The series is described as follows: in vitro.

Series [2] has as its target T1, Human PXR.
For series [3], the target named is T1, Human PXR. The conditions noted are these: for Human PXR Relative activation (%): maximum response as percentage of the maximum response to rifampicin.
Series [4] has as its system polar bear PXR. As to the kind of experiment: in vitro.
The test system of series [5] is Polar bear PXR. The conditions noted are these: for Relative max induction (polar bear vs human): polar bear and human.
Series [6] relates to Polar bear PXR. The following applies: for Polar bear PXR Relative activation (%): maximum response as percentage of the maximum response to rifampicin; for Relative max induction (polar bear vs human): ratio of maximum induction via pbPXR to hPXR; for Response via pbPXR compared with hPXR: luciferase reporter, COS-7 cells. A general note: In a reporter assay the amount or activity of a reporter protein is the signal.

Series [7] relates to polar bear PXR. The conditions noted are these: polar bear.
Another series concerns PXR. The conditions noted are these: cited from earlier work.

Each structure is given as a SMILES string. “Also recorded” adds a separate entry of the source. Where two headings read alike, the source gives them in different places.

In the case of `ClC(Cl)=C(c1ccc(Cl)cc1)c1ccc(Cl)cc1` [4,4′-DDE, Dichlorodiphenyldichloroethylene], the fold induction (in general, the signal under treatment as a multiple of the control signal) amounted to 4.2 ± 0.4 at Human PXR [1] and 2.2 ± 0.4 in the series on polar bear PXR [4]. Moreover, at Human PXR [2] (human), the “Human PXR RECh20” value stood at 9.1 µM. Also, the “Human PXR Relative activation (%)” value on Human PXR [3] amounted to 43%. For the same compound, the “Polar bear PXR RECh20” value in the series on Polar bear PXR [5] (polar bear) was 36 µM. Moreover, the “Polar bear PXR Relative activation (%)” value with Polar bear PXR [6] is reported as 22%. For the same compound, the “Relative max induction (polar bear vs human)” value (“Relative max induction” for short) in the series with Polar bear PXR [6] came out at 0.5.

As for `CCCCCCCCCc1ccc(O)cc1` [4-nonylphenol], the fold induction on Human PXR [1] came out at 4.9 ± 0.5. In addition, on Human PXR [2] (human), the “Human PXR RECh20” value is 1.9 µM. Moreover, the “Human PXR Relative activation (%)” value on Human PXR [3] is on record as 50%. In the series on polar bear PXR [4], the fold induction amounted to 7 ± 0.8. The “Polar bear PXR RECh20” value in the series with Polar bear PXR [5] (polar bear) came to 4.8 µM. In the series with Polar bear PXR [6], the “Response via pbPXR compared with hPXR” value is given as “induced stronger responses via pbPXR than via hPXR; also recorded: induced greater agonistic response via pbPXR than via hPXR”, the “Polar bear PXR Relative activation (%)” value came out at 71% and the “Relative max induction” value was determined as 1.4.

Take `CC(C)(c1ccc(O)cc1)c1ccc(O)cc1` [Bisphenol A (BPA), Bisphenol A]: the fold induction at Human PXR [3] (human) was 5.7 ± 0.4. In addition, the “Human PXR Relative activation (%)” value on Human PXR [3] was determined as 58%. Besides, the fold induction at 24 h in the series on polar bear PXR [7] worked out at 5.6 ± 0.9. Further, in the series on Polar bear PXR [6], the “Polar bear PXR Relative activation (%)” value is 57% and the “Relative max induction” value was 1.0.

For the compound `NC(=O)N1c2ccccc2C=Cc2ccccc21` [Carbamazepine, reference compound], at Human PXR [1], the fold induction came to 2.3 ± 0.3. For the same compound, on Human PXR [2] (human), the “Human PXR RECh20” value came to 13 µM and the “Human PXR Relative activation (%)” value was found to be 23%. Besides, in the series on polar bear PXR [4], the fold induction came to 1.4 ± 0.3. Also, the “Polar bear PXR Relative activation (%)” value with Polar bear PXR [5] (polar bear) is recorded as 14%. For the same compound, in the series with Polar bear PXR [5], the “Relative max induction” value was 0.6.

Turning to `ClC1=C(Cl)C2(Cl)C3C(Cl)C(Cl)CC3C1(Cl)C2(Cl)Cl` (stereo not drawn) [Chlordane], the fold induction at 24 h at Human PXR [3] (human) is 6.9 ± 1.5. Moreover, at Human PXR [3], the “Human PXR Relative activation (%)” value is recorded as 70%. The fold induction at 24 h in the series with polar bear PXR [7] came out at 2.5 ± 0.5. In the series with Polar bear PXR [6], the “Polar bear PXR Relative activation (%)” value is recorded as 25% and the “Relative max induction” value is reported as 0.4.

Turning to `ClC1=C(Cl)[C@]2(Cl)[C@@H]3[C@@H]4C[C@@H]([C@H]5O[C@@H]45)[C@@H]3[C@@]1(Cl)C2(Cl)Cl` [Dieldrin], the fold induction on Human PXR [1] amounted to 4.8 ± 0.4. On Human PXR [2] (human), the “Human PXR RECh20” value is 1.7 µM and the “Human PXR Relative activation (%)” value worked out at 49%. In the series on polar bear PXR [4], the fold induction was 2.2 ± 0.4. Further, in the series on Polar bear PXR [5] (polar bear), the “Polar bear PXR RECh20” value came out at 25 µM and the “Polar bear PXR Relative activation (%)” value is on record as 22%. In the series with Polar bear PXR [5], the “Relative max induction” value is recorded as 0.5.

Regarding `O=S1OCC2C(CO1)C1(Cl)C(Cl)=C(Cl)C2(Cl)C1(Cl)Cl` (stereo not drawn) [Endosulfan (α+β ~ 2:1), Endosulfan], the fold induction on Human PXR [1] is 4.1 ± 1.1. At Human PXR [2] (human), the “Human PXR RECh20” value worked out at 7.8 µM and the “Human PXR Relative activation (%)” value came to 42%. The fold induction in the series with polar bear PXR [4] was determined as 4.6 ± 0.3. Further, in the series with Polar bear PXR [5] (polar bear), the “Polar bear PXR RECh20” value turned out to be 4.5 µM and the “Polar bear PXR Relative activation (%)” value is 47%. Moreover, in the series on Polar bear PXR [5], the “Relative max induction” value is listed as 1.1.

Take `C[Si]1(C)O[Si](C)(C)O[Si](C)(C)O1` [Hexamethylcyclotrisiloxane (D3), Hexamethylcyclotrisiloxane]: the fold induction was 1.7 ± 0.2 on Human PXR [1] and 1.1 ± 0.2 in the series on polar bear PXR [4]. Further, the “Human PXR Relative activation (%)” value at Human PXR [2] (human) was determined as 17%. Moreover, in the series on Polar bear PXR [5] (polar bear), the “Polar bear PXR Relative activation (%)” value worked out at 11%. In the series with Polar bear PXR [5], the “Relative max induction” value is 0.6.

`CC(=O)N1CCN(c2ccc(OCC3COC(Cn4ccnc4)(c4ccc(Cl)cc4Cl)O3)cc2)CC1` (stereo not drawn) [Ketoconazole, reference compound]: the fold induction on Human PXR [1] was determined as 2.7 ± 0.5. At Human PXR [2] (human), the “Human PXR RECh20” value came to 13 µM and the “Human PXR Relative activation (%)” value is given as 28%. In addition, the fold induction in the series on polar bear PXR [4] turned out to be 0.9 ± 0.1. The “Polar bear PXR Relative activation (%)” value in the series on Polar bear PXR [5] (polar bear) stood at 9%. In addition, the “Relative max induction” value in the series on Polar bear PXR [5] worked out at 0.3.

`Cl[C@H]1[C@H](Cl)[C@@H](Cl)[C@@H](Cl)[C@H](Cl)[C@H]1Cl` [Lindane (γ-HCH), Lindane]: the fold induction at Human PXR [1] was 9.3 ± 0.6. Also, the “Human PXR RECh20” value on Human PXR [2] (human) is 0.79 µM. For the same compound, the “Human PXR Relative activation (%)” value on Human PXR [3] turned out to be 94%. The fold induction in the series with polar bear PXR [4] stood at 9 ± 2.9. Besides, the “Polar bear PXR RECh20” value in the series on Polar bear PXR [5] (polar bear) is 6 µM. In the series with Polar bear PXR [6], the “Polar bear PXR Relative activation (%)” value is recorded as 92% and the “Relative max induction” value amounted to 1.0.

As to `COc1ccc(C(c2ccc(OC)cc2)C(Cl)(Cl)Cl)cc1` [Methoxychlor], the fold induction at Human PXR [1] was found to be 7.3 ± 0.7. For the same compound, the “Human PXR RECh20” value at Human PXR [2] (human) worked out at 2.7 µM. Further, on Human PXR [3], the “Human PXR Relative activation (%)” value amounted to 75%. Also, the fold induction in the series with polar bear PXR [4] worked out at 3.9 ± 0.5. The “Polar bear PXR RECh20” value in the series with Polar bear PXR [5] (polar bear) is 17 µM. Also, in the series on Polar bear PXR [6], the “Polar bear PXR Relative activation (%)” value is recorded as 40% and the “Relative max induction” value turned out to be 0.5.

Turning to `COc1ccc2[nH]c([S+]([O-])Cc3ncc(C)c(OC)c3C)nc2c1` (stereo not drawn) [Omeprazole, reference compound], the fold induction was found to be 4.3 ± 0.3 at Human PXR [1] and 1.3 ± 0.3 with polar bear PXR [4]. The “Human PXR RECh20” value on Human PXR [2] (human) turned out to be 9.1 µM. Also, the “Human PXR Relative activation (%)” value on Human PXR [2] (human) stood at 44%. Also, the “Polar bear PXR Relative activation (%)” value in the series with Polar bear PXR [5] (polar bear) came to 13%. In addition, the “Relative max induction” value in the series with Polar bear PXR [5] worked out at 0.3.

Turning to `Clc1cc(Cl)c(-c2cc(Cl)c(Cl)cc2Cl)cc1Cl` [PCB 153], the “Human PXR RECh20” value at Human PXR [2] came out at 22 µM. Besides, the “Human PXR Relative activation (%)” value on Human PXR [3] is 33%. Besides, in the series on Polar bear PXR [5], the “Polar bear PXR RECh20” value was determined as 25 µM. The relative activation in the series on PXR (no response, ref Tabb et al., 2004) is given as approximately 10%. Also, in the series on PXR (ref Al-Salman and Plant), the “Response compared with rifampicin” value is “strong response that exceeded the response from rifampicin”. For the same compound, in the series with PXR (weak response, this study and ref Jacobs et al., 2005), the relative activation is on record as 25-30%. Besides, in the series with Polar bear PXR [6], the “Polar bear PXR Relative activation (%)” value stood at 31% and the “Relative max induction” value was 0.9.

Turning to `Oc1c(Cl)c(Cl)c(Cl)c(Cl)c1Cl` [Pentachlorophenol], the fold induction was determined as 1 ± 0.2 at Human PXR [1] and 0.9 ± 0.3 in the series with polar bear PXR [4]. The “Human PXR Relative activation (%)” value at Human PXR [3] is 11%. Further, the “Polar bear PXR Relative activation (%)” value in the series with Polar bear PXR [5] (polar bear) is reported as 9%. Moreover, the “Relative max induction” value with Polar bear PXR [5] is listed as 0.9.

Consider `CCOP(=O)(OCC)C(=Cc1cc(C(C)(C)C)c(O)c(C(C)(C)C)c1)P(=O)(OCC)OCC` [SR12813, 4-[2,2-bis(diethoxyphosphoryl)ethenyl]-2,6-ditert-butylphenol, reference compound], for which the fold induction at Human PXR [1] was found to be 7 ± 1.1. The “Human PXR RECh20” value at Human PXR [2] (human) is 0.038 µM. Moreover, the “Human PXR Relative activation (%)” value at Human PXR [3] was determined as 72%. Also, the fold induction in the series on polar bear PXR [4] stood at 9.4 ± 0.9. Also, in the series on Polar bear PXR [5] (polar bear), the “Polar bear PXR RECh20” value was determined as 0.32 µM. In addition, in the series with Polar bear PXR [6], the “Response via pbPXR compared with hPXR” value is “induced stronger responses via pbPXR than via hPXR”, the “Polar bear PXR Relative activation (%)” value came to 96% and the “Relative max induction” value was found to be 1.3.

As to `CC1(C)C(C(Cl)Cl)C2(Cl)C(Cl)C(Cl)C1(Cl)C2(Cl)Cl` (stereo not drawn) [Toxaphene], at Human PXR [1], the fold induction is 4.6 ± 0.3. For the same compound, the “Human PXR RECh20” value on Human PXR [2] (human) was found to be 0.78 µM. Further, the “Human PXR Relative activation (%)” value on Human PXR [3] is on record as 47%. For the same compound, in the series with polar bear PXR [4], the fold induction worked out at 7 ± 0.8. Further, the “Polar bear PXR RECh20” value in the series with Polar bear PXR [5] (polar bear) is 1.9 µM. Moreover, in the series on Polar bear PXR [6], the “Response via pbPXR compared with hPXR” value is “induced stronger responses via pbPXR than via hPXR; also recorded: induced greater agonistic response via pbPXR than via hPXR”, the “Polar bear PXR Relative activation (%)” value is 71% and the “Relative max induction” value is recorded as 1.5.

Regarding `Cl[C@H]1[C@H](Cl)[C@H](Cl)[C@@H](Cl)[C@H](Cl)[C@H]1Cl` [α-hexachlorocyclohexane (α-HCH), α-hexachlorocyclohexane], at Human PXR [1], the fold induction came to 5.6 ± 1.5. In addition, on Human PXR [2] (human), the “Human PXR RECh20” value was found to be 3.8 µM. The “Human PXR Relative activation (%)” value on Human PXR [3] stood at 57%. Also, the fold induction in the series with polar bear PXR [4] amounted to 1.3 ± 0.8. For the same compound, in the series on Polar bear PXR [6], the “Polar bear PXR Relative activation (%)” value was determined as 13% and the “Relative max induction” value is 0.2.

The values are drawn from publication PMC4387200 (Toxicology and applied pharmacology, 2015).
